This is an account of results in patent US9980943B2, “Methods of treating muscular dystrophy” (BOARD OF REGENTS OF THE NEVADA SYSTEM OF HIGHER EDUCATION, …, priority 2013, dated 2018).

Common to all, as to type: cell-based, mouse
Experiment [1] deals with α7 integrin (LacZ reporter in α7βgal+/− myoblasts). The experiment is described as follows: Myoblast α7+/LacZ integrin FDG assay (Burkin assay in myoblasts, 96-well). Conditions: for Burkin Assay in Myoblasts, value relative to DMSO: SU9516 analogs, N=3-6; for Burkin Assay in Myoblasts, value relative to DMSO / Burkin Assay in Myoblasts, signal relative to DMSO: 96-well; for Burkin Assay in Myoblasts, signal relative to DMSO: α7+/LacZ myoblasts.

Experiment [2] relates to α7 integrin (LacZ reporter in α7+/LacZ myotubes). The experiment is described as follows: Myotube α7 integrin FDG assay (Burkin assay in myotubes, 96-well). Conditions: for Burkin Assay in Myotubes, value relative to DMSO: SU9516 analogs, 96-well, N=3-6.
For experiment [3], the system named is β-galactosidase in CMV-LacZ C2C12 myoblasts. As to the kind of experiment: CMV-LacZ secondary screen in C2C12 myoblasts (β-Gal stabilizing assay). Conditions: for CMV-LACZ in Myoblasts, value relative to DMSO: SU9516 analogs, C2C12 CMV-LacZ, N=2; for CMV-LACZ in Myoblasts (β-galactosidase activity relative to DMSO): CMV-LacZ C2C12 myoblasts. An outline of the steps: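 β-gal stabilization was measured in C2C12 myoblasts or myotubes stably transfected with a CMV-driven LacZ construct, using the FDG β-gal assay. Compounds were tested in dose-response at 0.5, 1, 5, 10, 20 and 40 μM, with two replicates per point.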

The subject of experiment [4] is β-galactosidase in CMV-LacZ C2C12 myotubes. As to the kind of experiment: CMV-LacZ secondary screen in C2C12 myotubes (β-Gal stabilizing assay). To be noted: for CMV-LACZ in Myotubes, value relative to DMSO: SU9516 analogs, C2C12 CMV-LacZ, N=2; for CMV-LACZ in Myotubes, signal relative to DMSO: C2C12 CMV-LacZ myotubes, fold relative to DMSO. An outline of the steps: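 β-Gal level was the read-out, measured in a clonal C2C12 line expressing LacZ from a CMV promoter. Dose-response curves used six concentrations, 0.5 μM up to 40 μM, with duplicate points.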

Setting [5] is: Mus musculus, Myoblast, 48 h, read-out: Burkin Assay in Myoblasts, value relative to DMSO.

Consider `O=C1Nc2ccccc2/C1=C/c1ccc([N+](=O)[O-])cc1` [MLS001194544-01], for which the “Burkin Assay in Myoblasts, value relative to DMSO” value in experiment [1] (0.5 uM) was found to be 1.044; in experiment [1] (1 uM), 0.9906; in experiment [1] (5 uM), 1.02; in experiment [1] (10 uM), 1.145; in experiment [1] (20 uM) it was 0.7914; in experiment [1] (40 uM), 0.5028. The “Burkin Assay in Myotubes, value relative to DMSO” value in experiment [2] (0.5 uM) was found to be 0.9611; in experiment [2] (1 uM) it was 0.9995; in experiment [2] (5 uM), 1.002; in experiment [2] (10 uM), 1.07; in experiment [2] (20 uM), 0.754; in experiment [2] (40 uM) it was 0.7611. Moreover, the “CMV-LACZ in Myoblasts, value relative to DMSO” value in experiment [3] (0.5 uM) is recorded as 0.8975; in experiment [3] (1 uM) it was 0.7213; in experiment [3] (5 uM), 0.9068; in experiment [3] (10 uM), 1.0363; in experiment [3] (20 uM), 0.8983; in experiment [3] (40 uM) it was 0.7383. Further, the “CMV-LACZ in Myotubes, value relative to DMSO” value stood at 1.0764 in experiment [4] (0.5 uM); 1.1318 in experiment [4] (1 uM); 0.9683 in experiment [4] (5 uM); 0.9739 in experiment [4] (10 uM); 0.9800 in experiment [4] (20 uM); 0.9400 in experiment [4] (40 uM).
Consider `O=CN1CCN(C(=O)CC(c2ccccc2)c2cc(Br)ccc2O)CC1` (stereo not drawn) [MLS001000874-01], for which the “Burkin Assay in Myoblasts, signal relative to DMSO” value in experiment [1] (0.5 uM) turned out to be 1.175; in experiment [1] (1 uM) it was 1.033; in experiment [1] (5 uM), 1.077; in experiment [1] (10 uM), 0.8677; in experiment [1] (20 uM), 1.007; in experiment [1] (40 uM), 0.9545. Also, the “Burkin Assay in Myotubes, α7 integrin LacZ reporter signal relative to DMSO” value in experiment [2] (0.5 uM) amounted to 0.9357; in experiment [2] (1 uM), 0.8646; in experiment [2] (5 uM), 1.0731; in experiment [2] (10 uM), 0.9216; in experiment [2] (20 uM), 0.9266; in experiment [2] (40 uM) it was 0.8181. For the same compound, the “CMV-LACZ in Myoblasts (β-galactosidase activity relative to DMSO)” value worked out at 1.1029 in experiment [3] (0.5 uM); 1.0442 in experiment [3] (1 uM); 0.8886 in experiment [3] (5 uM); 1.0295 in experiment [3] (10 uM); 1.0556 in experiment [3] (20 uM); 1.1100 in experiment [3] (40 uM). In addition, the “CMV-LACZ in Myotubes, signal relative to DMSO” value is 1.0943 in experiment [4] (0.5 uM); 1.1590 in experiment [4] (1 uM); 1.1124 in experiment [4] (5 uM); 0.9960 in experiment [4] (10 uM); 1.1484 in experiment [4] (20 uM); 1.0947 in experiment [4] (40 uM).
For the compound `COc1ccccc1/C=C1\C(=O)Nc2ccccc21` [MLS001202634-01], in experiment [1] (setting [5]), the fold induction at 0.5 µM was found to be 1.21. Moreover, in experiment [1] (setting [5]), the fold induction at 1 µM is 1.1. For the same compound, the fold induction at 5 µM in experiment [1] (setting [5]) was 1.14. Further, the fold induction at 10 µM in experiment [1] (setting [5]) stood at 1.31. In addition, in experiment [1] (setting [5]), the fold induction at 20 µM came out at 0.994. For the same compound, in experiment [1] (setting [5]), the fold induction at 40 µM was determined as 0.931. In addition, the “Burkin Assay in Myotubes, value relative to DMSO” value in experiment [2] (0.5 uM) is 0.9928; in experiment [2] (1 uM), 1.1156; in experiment [2] (5 uM) it was 0.9675; in experiment [2] (10 uM), 1.139; in experiment [2] (20 uM), 0.9473; in experiment [2] (40 uM), 1.289. Further, the “CMV-LACZ in Myoblasts, value relative to DMSO” value is reported as 1.0500 in experiment [3] (0.5 uM); 1.0071 in experiment [3] (1 uM); 1.1287 in experiment [3] (5 uM); 1.0990 in experiment [3] (10 uM); 1.0817 in experiment [3] (20 uM); 0.9217 in experiment [3] (40 uM). Further, the “CMV-LACZ in Myotubes, value relative to DMSO” value in experiment [4] (0.5 uM) came out at 0.9582; in experiment [4] (1 uM), 1.0073; in experiment [4] (5 uM), 1.2348; in experiment [4] (10 uM), 0.9661; in experiment [4] (20 uM), 0.9750; in experiment [4] (40 uM), 0.9340.
As for `COc1ccc(C(=O)Cn2nnc(-c3ccccc3NC(=O)c3ccco3)n2)cc1` [MLS000072290-01], the “Burkin Assay in Myoblasts, signal relative to DMSO” value in experiment [1] (0.5 uM) was 1.405; in experiment [1] (1 uM), 1.196; in experiment [1] (5 uM), 0.7334; in experiment [1] (10 uM), 0.6517; in experiment [1] (20 uM) it was 0.3984; in experiment [1] (40 uM), 0.2238. In addition, the “Burkin Assay in Myotubes, α7 integrin LacZ reporter signal relative to DMSO” value is reported as 1.109 in experiment [2] (0.5 uM); 1.121 in experiment [2] (1 uM); 0.9096 in experiment [2] (5 uM); 0.8405 in experiment [2] (10 uM); 0.475 in experiment [2] (20 uM); 0.1784 in experiment [2] (40 uM). The “CMV-LACZ in Myoblasts (β-galactosidase activity relative to DMSO)” value in experiment [3] (0.5 uM) was found to be 1.0579; in experiment [3] (1 uM), 0.9000; in experiment [3] (5 uM), 1.4390; in experiment [3] (10 uM) it was 1.3303; in experiment [3] (20 uM) it was 0.3911; in experiment [3] (40 uM), 0.2915. In addition, the “CMV-LACZ in Myotubes, signal relative to DMSO” value in experiment [4] (0.5 uM) is recorded as 0.9362; in experiment [4] (1 uM), 1.1495; in experiment [4] (5 uM), 1.3265; in experiment [4] (10 uM), 1.1459; in experiment [4] (20 uM), 1.3484; in experiment [4] (40 uM), 1.0653.
As for `C/C(=N\NC(=O)c1cc(C)oc1C)c1ccc2ccccc2c1` [MLS000912258-01], the “Burkin Assay in Myoblasts, signal relative to DMSO” value in experiment [1] (0.5 uM) came to 0.8436; in experiment [1] (1 uM), 0.9089; in experiment [1] (5 uM), 1.2722; in experiment [1] (10 uM) it was 0.8425; in experiment [1] (20 uM), 0.6351; in experiment [1] (40 uM) it was 0.3725. Moreover, the “Burkin Assay in Myotubes, α7 integrin LacZ reporter signal relative to DMSO” value worked out at 0.9264 in experiment [2] (0.5 uM); 0.8571 in experiment [2] (1 uM); 1.144 in experiment [2] (5 uM); 0.9631 in experiment [2] (10 uM); 0.877 in experiment [2] (20 uM); 0.7193 in experiment [2] (40 uM). For the same compound, the “CMV-LACZ in Myoblasts (β-galactosidase activity relative to DMSO)” value in experiment [3] (0.5 uM) was determined as 1.1073; in experiment [3] (1 uM) it was 1.1693; in experiment [3] (5 uM) it was 0.9071; in experiment [3] (10 uM), 1.0171; in experiment [3] (20 uM), 1.1074; in experiment [3] (40 uM), 0.8621. Also, the “CMV-LACZ in Myotubes, signal relative to DMSO” value in experiment [4] (0.5 uM) stood at 0.9743; in experiment [4] (1 uM) it was 0.9162; in experiment [4] (5 uM) it was 1.1251; in experiment [4] (10 uM), 1.2253; in experiment [4] (20 uM), 1.0760; in experiment [4] (40 uM), 1.0350.
